What was measured:
[1] = biological target: T1, Transient receptor potential cation channel subfamily V member 1 (Rattus norvegicus, UniProt O35433); experiment: Antagonist activity at rat TRPV1 expressed in human SH-SY5Y cells assessed as reduction in capsaicin-induced intracellular calcium accumulation preincubated with cells followed by capsaicin addition by Fluo-4 NW dye based fluorescence assay; assay type: cell-based
[2] = biological target: T1, Transient receptor potential cation channel subfamily V member 1; experiment: Agonist activity at rat TRPV1 expressed in human SH-SY5Y cells assessed as intracellular calcium accumulation by Fluo-4 NW dye based fluorescence assay; assay type: cell-based

T1 sequence (O35433 whole entry): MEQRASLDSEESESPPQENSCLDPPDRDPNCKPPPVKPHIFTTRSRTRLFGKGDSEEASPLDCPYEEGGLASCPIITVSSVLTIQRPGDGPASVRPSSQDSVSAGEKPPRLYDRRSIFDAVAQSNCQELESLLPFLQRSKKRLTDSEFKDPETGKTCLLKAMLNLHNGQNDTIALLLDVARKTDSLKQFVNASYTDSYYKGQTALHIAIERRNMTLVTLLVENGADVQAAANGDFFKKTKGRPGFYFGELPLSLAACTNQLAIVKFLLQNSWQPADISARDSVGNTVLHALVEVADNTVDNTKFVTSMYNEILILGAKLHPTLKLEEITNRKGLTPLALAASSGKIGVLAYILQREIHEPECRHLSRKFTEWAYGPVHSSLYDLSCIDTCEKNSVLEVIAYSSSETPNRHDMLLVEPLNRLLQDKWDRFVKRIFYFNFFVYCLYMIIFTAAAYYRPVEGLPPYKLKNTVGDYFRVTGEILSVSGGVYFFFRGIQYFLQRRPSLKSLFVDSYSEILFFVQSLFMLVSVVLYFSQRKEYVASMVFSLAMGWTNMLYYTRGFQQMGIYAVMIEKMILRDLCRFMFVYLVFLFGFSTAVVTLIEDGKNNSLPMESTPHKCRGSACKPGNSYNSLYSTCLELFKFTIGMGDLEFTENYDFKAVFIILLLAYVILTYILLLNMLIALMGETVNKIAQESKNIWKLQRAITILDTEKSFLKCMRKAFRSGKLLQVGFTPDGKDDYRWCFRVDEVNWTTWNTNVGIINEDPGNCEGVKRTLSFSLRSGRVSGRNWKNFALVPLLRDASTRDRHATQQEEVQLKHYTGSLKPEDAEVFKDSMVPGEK

| IC50 [1] [nM] | EC50 [2] [nM] | SMILES |
| --- | --- | --- |
| 320 |  | COc1cc(CNC(=O)COC(=O)/C=C(\C)CCC=C(C)C)c(I)cc1O |
|  | 15 | CC(C)=CCC/C(C)=C/CC/C(C)=C/CC/C=C(\C)CC/C=C(\C)CCC(=O)OCC(=O)NCc1ccc(O)c(O)c1 |

Source: ChEMBL document CHEMBL4330173, “TRPV1 Modulators for the Treatment of Pain and Inflammation” (ACS Med Chem Lett, 2019)
